Laboratory results as given in ChEMBL document CHEMBL1150219, “New co-metabolites of the streptazolin pathway” (2001).
Activity calls are given as the source filed them. No cut-off for these calls is given here.

Key:
HepG2 [1] = test: Cytotoxicity against human HepG2 cells; assay type: functional
MCF7 [2] = test: Cytotoxicity against human MCF7 cells; assay type: functional
[3] = Cytotoxicity against human KATO III cells; assay type: functional, KATO III cell
[4] = Cytotoxicity against human HMO2 cells; assay type: functional
HepG2 [5] = test: Cytotoxicity against human HepG2 cells at 50 umol/L; assay type: functional, cell-based
HMO2 = test: Cytotoxicity against human HMO2 cells at 50 umol/L; assay type: functional, cell-based
MCF7 [6] = test: Cytotoxicity against human MCF7 cells at 50 umol/L; assay type: functional, cell-based

Compound | GI50 (HepG2 [1]) [nM] | TGI (HepG2 [1]) [nM] | GI50 (MCF7 [2]) [nM] | TGI (MCF7 [2]) [nM] | GI50 [3] [nM] | TGI [3] [nM] | GI50 [4] [nM] | TGI [4] [nM] | Activity (HepG2 [5]) | Activity (HMO2) | Activity (MCF7 [6])
C/C=C1/C2=CCCN3C(=O)O[C@H]([C@H]1O[C@@H]1OC[C@@H](O)[C@H](O)[C@H]1O)[C@H]23 | 300 | 5000 | 10000 | 30000 | 700 | 1000 | 150 | > 50000 | – | – | –
C/C=C1/C2=CCCN3C(=O)O[C@H]([C@H]1O)[C@H]23 | – | – | – | – | – | – | – | – | inactive | inactive | inactive
